Measured values reported in US11980616B2, “Treating liver disease by selectively eliminating senescent cells” (Buck Institute for Research on Aging, priority 2014, dated 2024).

Key:
[1] = tested on: osteoarthritic joint of mice after ACL surgery; test: Osteoarthritis mouse model (ACL surgery); format: in vivo
Method: A table and schematic of two osteoarthritis mouse model study designs are presented in FIGS. 35 and 36, respectively. The two treatment studies were designed to determine the effect of removing senescent cells in an animal model of osteoarthritis.
Parallel studies were performed. One study investigated the effect of eliminating senescent cells with ganciclovir (GCV) in 3MR mice. Mice underwent surgery to cut the anterior cruciate ligament of one rear limb to induce osteoarthritis in the joint of that limb. During week 2 post-surgery, 3MR mice received 2.5 μg GCV to the operated knee by intra-articular injection, qd for 5 days, with a 2nd treatment (2.5 μg GCV qd for 5 days) during week 4 post-surgery. At the end of 4 weeks post-surgery, operated joints of the mice were monitored for presence of senescent cells, assessed for function, monitored for markers of inflammation, and underwent histological assessment.
In a parallel study, C57BL/6J mice underwent surgery to cut the anterior cruciate ligament of one rear limb to induce osteoarthritis in the joint of that limb. During week 3 and week 4 post-surgery, the mice were treated with 5.8 μg of Nutlin-3A (n=7) per operated knee by intra-articular injection, qod for 2 weeks. At the end of 4 weeks post-surgery, joints of the mice were monitored for presence of senescent cells, assessed for function, monitored for markers of inflammation, and underwent histological assessment.
Two control groups of mice were included in the studies performed: one group comprising C57BL/6J or 3MR mice that had undergone a sham surgery (n=3) (i.e., surgical procedures followed except for cutting the ACL) and intra-articular injections of vehicle parallel to the GCV-treated group; and one group comprising C57BL/6J or 3MR mice that had undergone an ACL surgery and received intra-articular injections of vehicle (n=5) parallel to the GCV-treated group.
RNA from the operated joints of mice from the Nutlin-3A treated mice was analyzed for expression of SASP factors (mmp3, IL-6) and senescence markers (p16). qRT-PCR was performed to detect mRNA levels. […] RNA from the operated joints of mice was also analyzed for expression of type 2 collagen and compared with expression of actin as a control.
Function of the limbs was assessed 4 weeks post-surgery by a weight bearing test to determine which leg the mice favored (FIG. 39). The mice were allowed to acclimate to the chamber on at least 3 occasions prior to taking measurements. Mice were maneuvered inside the chamber to stand with 1 hind paw on each scale. The weight that was placed on each hind limb was measured over a 3-second period. At least 3 separate measurements were made for each animal at each time point. The results were expressed as the percentage of the weight placed on the operated limb versus the contralateral unoperated limb.
The function of the limbs was also assessed at 4 weeks post-surgery by hotplate analysis to show sensitivity and reaction to pain stimulus. In brief, a mouse was placed on a hotplate at 55° C. When placed on the hot surface of the plate, mice will lift their paws and lick them (paw-lick response) due to attainment of pain threshold. The latency period for the hind limb response (paw-lick response) is recorded as response time.
Histopathology of osteoarthritis induced by ACL surgery illustrated that the proteoglycan layer was destroyed. […] Clearing of senescent cells from the 3MR mice treated with GCV, which kills senescent cells, had the same impact on pathophysiology of osteoarthritis as Nutlin-3A.

[2] = tested on: 3MR mice exposed to bleomycin; test: Bleomycin induced lung injury model; format: in vivo, mouse
Method: One animal model study assessed the effect of clearance of senescence cells in the transgenic mouse strain 3MR that has bleomycin induced lung injury. In the bleomycin injury model for idiopathic pulmonary fibrosis, mice develop lung fibrosis within 7-14 days after bleomycin treatment (see, e.g., Limjunyawong et al., 2014, Physiological Reports 2:e00249; Daniels et al., 2004, J. Clin. Invest. 114:1308-1316). Bleomycin was administered to anesthetized 6-8 week old 3MR mice by intratracheal aspiration (2.5 U/kg of bleomycin in 50 μl PBS) using a microsprayer syringe (Penn-Century, Inc.) as described in Daniels et al. (2004, J. Clin. Invest. 114:1308-1316). Control mice were administered saline. The day following bleomycin treatment, ganciclovir (GCV) (25 mg/kg in PBS) was administered. 3MR mice were treated via intraperitoneal injection with ganciclovir for 5 consecutive days, followed by 5 days of rest, followed by a second treatment cycle of 5 consecutive days. Untreated mice received an equal volume of vehicle. At 7, 14, and 21 days post-bleomycin treatment, lung function was assessed by monitoring oxygen saturation using the MouseSTAT PhysioSuite pulse oximeter (Kent Scientific). Animals were anesthetized with isoflurane (1.5%) and a toe clip was applied. Mice were monitored for 30 seconds and the average peripheral capillary oxygen saturation (SpO2) measurement over this duration was calculated. […] At 21 days post-bleomycin treatment, airway hyper-reactivity (AHR) of mice was examined. AHR of mice was measured by methacholine challenge while other parameters of lung function (airway mechanics, lung volume and lung compliance) were determined using a SCIREQ flexiVent ventilator. While under ketamine/xylazine anesthesia and subjected to cannulation of the trachea via a tracheostomy (19Fr blunt Luer cannula), airway resistance (elastance) and compliance of mice were assessed at baseline and in response to increasing concentrations of methacholine (0 to 50 mg/ml in PBS) delivered via nebulization (AeroNeb) as described in Aravamudan et al. (Am. J. Physiol. Lung Cell. Mol. Physiol. (2012) 303:L669-L681). Animals were maintained at 37° C., and while under muscle paralysis (pancuronium); airway function was measured by using the FlexiVent™ ventilator and lung mechanics system (SCIREQ, Montreal, Quebec, Canada), which was housed on Stabile 8. […] As shown in FIGS. 60B-C, bleomycin administration reduced static compliance and (dynamic) compliance in vehicle treated mice. […] Mice were euthanized by i.p injection of pentobarbital. Bronchoalveolar lavage (BAL) fluids and lungs is obtained and analyzed. Hydroxyproline content of lungs is measured as described in Christensen et al. (1999, Am. J. Pathol. 155:1773-1779), and quantitative histopathology is performed. RNA is extracted from lung tissue to measure senescence cell markers by qRT-PCR in treated and control mice.

[3] = bleomycin exposed mouse, not statistically significant, group size too small
[4] = 25 mg/kg i.p., 21 days post-bleomycin

SMILES | Type 2 collagen expression in operated joints ([1]; 5.8 μg per knee intra-articular, vs untreated mice) | Weight bearing test (weight on operated vs unoperated limb) ([1]; 4 weeks post-surgery) | Hotplate paw-lick response time ([1]; 55° C., 4 weeks post-surgery) | Histopathology: destruction of the proteoglycan layer ([1]; C57BL/6J, 5.8 μg per knee intra-articular) | Senescent cells in the joint (p16 and SASP factor mRNA, qRT-PCR) ([1]; C57BL/6J, 5.8 μg per knee intra-articular qod 2 weeks, 4 weeks post-surgery) | Lung compliance [2, 3] | Lung elastance [2, 3] | Histopathology: impact on pathophysiology of osteoarthritis ([1]; 3MR mice, 2.5 μg intra-articular qd 5 days, weeks 2 and 4) | Peripheral capillary oxygen saturation (SpO2) ([2]; 25 mg/kg i.p., two cycles of 5 days, 7, 14, 21 days post-bleomycin) | Lung elastance [2, 4] | Static compliance and (dynamic) compliance [2, 4]
COc1ccc(C2=N[C@@H](c3ccc(Cl)cc3)[C@@H](c3ccc(Cl)cc3)N2C(=O)N2CCNC(=O)C2)c(OC(C)C)c1 [Nutlin-3a] | drives collagen production | abrogates this effect | decreases the response time in a significant manner | completely abrogated this effect | clears senescent cells from the joint | increased lung compliance | reduced lung elastance |  |  |  | 
Nc1nc(O)c2ncn(COC(CO)CO)c2n1 [ganciclovir] |  |  |  |  |  |  |  | same impact | higher SpO2 levels | reduced lung elastance | improved compliance values significantly
